{"source": "paper PMC11339918", "about": "“Extracellular Domain of IL-10 Receptor Chain-2 (IL-10R2) and Its Arginine-Containing Peptides Are Susceptible Substrates for Human Prostate Kallikrein-2 (KLK2)” (Biochemistry, 2024)", "molecules": {"B1": {"name": "recombinant IL-10: recombinant IL-10 (10 ng/mL) used in BMDM activation assay (protein, UniProt P18893 19-178, looked up)", "Interleukin-10": "SRGQYSREDNNCTHFPVGQSHMLLELRTAFSQVKTFFQTKDQLDNILLTDSLMQDFKGYLGCQALSEMIQFYLVEVMPQAEKHGPEIKEHLNSLGEKLKTLRMRLRRCHRFLPCENKSKAVEQVKSDFNKLQDQGVYKAMNEFDIFINCIEAYMMIKMKS"}}, "tested_on": "BMDM cells", "experiment": "BMDM activation with LPS/IFN-γ: NO, TNF-α and IL-12 p40 in supernatant", "type": "cell-based, C57Bl/6 mice", "details": "72 h, Griess, ELISA; for IL-10 inhibition of NO, TNF-α and IL-12 p40 generation in pretreated BMDM: pretreatment 7.5 μg/mL for 2 h, then LPS 200 ng/mL / IFN-γ 100 U/mL ± IL-10 10 ng/mL", "description": "BMDM were obtained from C57Bl/6 mice and used as previously reported.[17]\nFor BMDM activation assays in vitro, cells were plated at a density of 10^5 cells/mL in 96-well plates at 37 °C in the absence and presence of KLK2 or KLK3 (7.5 μg/mL) for 2 h. The cells were then washed with PBS and treated with LPS (200 ng/mL)/IFN-γ (100 U/mL) stimuli in the presence or absence of recombinant IL-10 (10 ng/mL). The activation response of BMDM cells was evaluated after 72 h by quantification of nitric oxide (NO), TNF-α, and IL-12 p40 in the supernatant of BMDM cell cultures. NO was quantified using the Griess assay,[19] and the cytokines TNF-α and IL-12 p40 were quantified using sandwich enzyme-linked immunosorbent assay (ELISA) kits (B.D. Biosciences) following the manufacturer’s instructions.\nFigure 3 KLK2 converts BMDM cells to a pro-inflammatory status characterized by maintaining NO, TNF-α, and IL-12p40 levels, even in the presence of recombinant IL-10. BMDM cells from C57Bl/6 mice were incubated in a 96-well plate (1 × 10^5 cells) with KLK2 (7.5 μg/mL) or KLK3 (7.5 μg/mL) for 2 h. After this, cells were washed and incubated with or without lipopolysaccharide (LPS) (200 ng/mL), IFN-γ (IFN), and recombinant IL-10 (IL10). (A) NO quantified in the culture supernatant by the Griess method. (B) TNF-α and (C) IL-12 p40 cytokines were quantified by ELISA in culture supernatants. MΦ = control macrophages. * p-value <0.001, analyzed by ANOVA with Tukey’s multiple comparisons.", "data": [{"molecule": "KLK2: human prostate kallikrein-2, recombinant, from a baculovirus-insect cell line system", "values": [{"measurement": "IL-10 inhibition of NO, TNF-α and IL-12 p40 generation in pretreated BMDM", "result": "these IL-10 inhibitory effects were not observed"}]}, {"molecule": "KLK3: human kallikrein-related peptidase 3 (PSA—prostatic-specific antigen)", "values": [{"measurement": "IL-10 inhibition of NO, TNF-α and IL-12 p40 generation in pretreated BMDM", "result": "did not show these effects"}]}, {"molecule": "B1", "values": [{"measurement": "generation of NO, TNF-α and IL-12 p40 in LPS/IFN-γ activated BMDM", "setting": "IL-10 10 ng/mL, LPS 200 ng/mL / IFN-γ 100 U/mL", "result": "reduced the generation of NO, TNF-α, and IL-12 p40"}]}]}
